Several values for one entry are separate records, joined by “and”; a condition that tells them apart may be missing. Equal entries are not always repeated. Toxic doses and inconclusive results are not listed. Rule as the data show it: active = T/C of 150% or more; inactive = T/C below 125%.
Tested on: L1210 leukemia ip in BDF1 mice, survival T/C
Assay: NCI In Vivo Anticancer Drug Screen. Data for tumor model L1210 Leukemia (intraperitoneal) in B6D2F1 (BDF1) mice
Details: endpoint: mean survival time, higher = longer survival
How it was run: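 Ratio derived from survival: compound-dosed mice over vehicle-dosed mice, all bearing a transplantable tumor.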

[1] = dose: 100.0 mg/kg/injection, schedule: Q04DX003 (ip), vehicle: Klucel (hydroxypropylcellulose) (HPC)
[2] = dose: 200.0 mg/kg/injection, schedule: Q04DX003 (ip), vehicle: Klucel (hydroxypropylcellulose) (HPC)
[3] = dose: 400.0 mg/kg/injection, schedule: Q04DX003 (ip), vehicle: Klucel (hydroxypropylcellulose) (HPC)
[4] = dose: 100.0 mg/kg/injection, schedule: Q01DX009 (ip), vehicle: Klucel (hydroxypropylcellulose) (HPC)
[5] = dose: 200.0 mg/kg/injection, schedule: Q01DX009 (ip), vehicle: Klucel (hydroxypropylcellulose) (HPC)
[6] = dose: 400.0 mg/kg/injection, schedule: Q01DX009 (ip), vehicle: Klucel (hydroxypropylcellulose) (HPC)
[7] = dose: 50.0 mg/kg/injection, schedule: Q01DX001 (ip), vehicle: saline
[8] = dose: 100.0 mg/kg/injection, schedule: Q01DX001 (ip), vehicle: saline
[9] = dose: 25.0 mg/kg/injection, schedule: Q01DX009 (ip), vehicle: Klucel (hydroxypropylcellulose) (HPC)
[10] = dose: 200.0 mg/kg/injection, schedule: Q01DX001 (ip), vehicle: saline
[11] = dose: 12.5 mg/kg/injection, schedule: Q01DX009 (ip), vehicle: saline
[12] = dose: 25.0 mg/kg/injection, schedule: Q04DX003 (ip), vehicle: saline
[13] = dose: 50.0 mg/kg/injection, schedule: Q04DX003 (ip), vehicle: saline

Measured: T/C

CCOC(=O)/C=C(/Nc1ccc(C(=O)c2ccccc2)cc1)C(=O)OCC
inactive: dose: 100.0 mg/kg/injection, schedule: Q01DX001 (ip), vehicle: acetone 87 % of control | dose: 100.0 mg/kg/injection, schedule: Q04DX003 (ip), vehicle: acetone 95 % of control | dose: 200.0 mg/kg/injection, schedule: Q01DX001 (ip), vehicle: acetone 92 % of control | dose: 200.0 mg/kg/injection, schedule: Q04DX003 (ip), vehicle: acetone 93 % of control | dose: 400.0 mg/kg/injection, schedule: Q01DX001 (ip), vehicle: acetone 90 % of control | dose: 400.0 mg/kg/injection, schedule: Q04DX003 (ip), vehicle: acetone 98 % of control

CCOC(=O)c1cnc(SC)nc1N(c1ccccc1)c1ccccc1
inactive: [1] 90 % of control | [2] 86 % of control | [3] 95 % of control

CC(=O)[C@@]1(O)CC[C@H]2[C@@H]3CCC4=CC(=O)CC[C@]4(C)[C@@]3(F)[C@@H](O)C[C@@]21C
inactive: dose: 100.0 mg/kg/injection, schedule: Q01DX Z (sc), vehicle: steriod suspending solution 98 % of control | dose: 200.0 mg/kg/injection, schedule: Q01DX Z (sc), vehicle: steriod suspending solution 98 % of control | dose: 400.0 mg/kg/injection, schedule: Q01DX Z (sc), vehicle: steriod suspending solution 100 % of control

CCN(CCC#N)C(=S)Nc1cccc2ccccc12
inactive: [4] 102 % of control | [5] 101 % of control | [6] 104 % of control

CCOC(=O)Nc1cc(NC(C)CCCN(CC)CC)c2nc(-c3ccccc3)c(-c3ccccc3)nc2n1 (stereo unspecified)
inactive: [7] 93 % of control | [8] 90 % of control

O=C(c1ccccc1)c1cc(=O)[nH]c(=O)[nH]1
inactive: dose: 47.5 mg/kg/injection, schedule: Q01DX001 (ip), vehicle: Klucel (hydroxypropylcellulose) (HPC) 100 % of control | dose: 95.0 mg/kg/injection, schedule: Q01DX001 (ip), vehicle: Klucel (hydroxypropylcellulose) (HPC) 102 % of control | dose: 190.0 mg/kg/injection, schedule: Q01DX001 (ip), vehicle: Klucel (hydroxypropylcellulose) (HPC) 98 % of control

C=CCNC(=S)Nc1ccc(OC(=O)NC2CCCCC2)cc1
inactive: dose: 100.0 mg/kg/injection, schedule: Q01DX009 (ip), vehicle: saline with Tween-80 110 % of control | dose: 100.0 mg/kg/injection, schedule: Q04DX003 (ip), vehicle: saline with Tween-80 110 % of control | dose: 200.0 mg/kg/injection, schedule: Q01DX009 (ip), vehicle: saline with Tween-80 106 % of control | dose: 200.0 mg/kg/injection, schedule: Q04DX003 (ip), vehicle: saline with Tween-80 113 % of control | dose: 400.0 mg/kg/injection, schedule: Q01DX009 (ip), vehicle: saline with Tween-80 102 % of control | dose: 400.0 mg/kg/injection, schedule: Q04DX003 (ip), vehicle: saline with Tween-80 98 % of control

N#CCOc1ccc(Cl)cc1
inactive: dose: 6.25 mg/kg/injection, schedule: Q01DX009 (ip), vehicle: Klucel (hydroxypropylcellulose) (HPC) 96 % of control | dose: 12.5 mg/kg/injection, schedule: Q01DX009 (ip), vehicle: Klucel (hydroxypropylcellulose) (HPC) 97 % of control | [9] 95 % of control and 108 % of control | dose: 100.0 mg/kg/injection, schedule: Q04DX002 (ip), vehicle: Klucel (hydroxypropylcellulose) (HPC) 87 % of control

Sc1cc(Cl)c(Cl)cc1Cl
inactive: dose: 100.0 mg/kg/injection, schedule: Q01DX001 (ip), vehicle: saline with Tween-80 97 % of control | dose: 200.0 mg/kg/injection, schedule: Q01DX001 (ip), vehicle: saline with Tween-80 90 % of control

CCc1ccccc1NC(=O)SCCSC(=O)Nc1ccccc1CC
inactive: [9] 91 % of control | dose: 50.0 mg/kg/injection, schedule: Q01DX009 (ip), vehicle: Klucel (hydroxypropylcellulose) (HPC) 102 % of control | [4] 96 % of control and 87 % of control | [6] 104 % of control

CCC(CO)Nc1nc2ccc([N+](=O)[O-])cc2c2ccccc12 (stereo unspecified)
inactive: [4] 103 % of control | [1] 94 % of control | [5] 111 % of control | [2] 102 % of control | [3] 102 % of control

CC(C)(C(=O)O)C(=O)O
inactive: [8] 103 % of control | [10] 106 % of control

CCOC(=O)c1[nH]c2ccsc2c1C[N+]1(C)CCCCC1
inactive: dose: 12.5 mg/kg/injection, schedule: Q01DX001 (ip), vehicle: saline with Tween-80 105 % of control | dose: 25.0 mg/kg/injection, schedule: Q01DX001 (ip), vehicle: saline with Tween-80 103 % of control

CN1Cc2cc3cc(c2O)C[N+](C)(C)Cc2c(Cl)c(c(Cl)c(c2Cl)C[N+](C)(C)C3)C1
inactive: [11] 98 % of control | dose: 12.5 mg/kg/injection, schedule: Q04DX003 (ip), vehicle: saline 97 % of control | dose: 25.0 mg/kg/injection, schedule: Q01DX009 (ip), vehicle: saline 98 % of control | [12] 97 % of control | [13] 92 % of control

CC1=C(C)C2(C)C1(C)C1(C)C(C)=C(C)C21C (stereo unspecified)
inactive: dose: 100.0 mg/kg/injection, schedule: Q01DX009 (ip), vehicle: acetone 86 % of control | dose: 200.0 mg/kg/injection, schedule: Q01DX009 (ip), vehicle: acetone 86 % of control

O=C(O)C1=CC2C=C(Cl)C=CC2OC1=O (stereo unspecified)
inactive: dose: 5.0 mg/kg/injection, schedule: Q01DX001 (ip), vehicle: saline 95 % of control | dose: 10.0 mg/kg/injection, schedule: Q01DX001 (ip), vehicle: saline 93 % of control | dose: 20.0 mg/kg/injection, schedule: Q01DX001 (ip), vehicle: saline 96 % of control | dose: 40.0 mg/kg/injection, schedule: Q01DX001 (ip), vehicle: saline 96 % of control | dose: 80.0 mg/kg/injection, schedule: Q01DX001 (ip), vehicle: saline 96 % of control | [8] 111 % of control | [10] 100 % of control

C1CCC(N2CC3CCCC2O3)CC1 (stereo unspecified)
inactive: [7] 101 % of control | [8] 97 % of control | [10] 95 % of control

CCCCn1cnc(=O)c2[nH]cnc21
inactive: dose: 3.12 mg/kg/injection, schedule: Q01DX009 (ip), vehicle: saline 90 % of control | dose: 6.25 mg/kg/injection, schedule: Q01DX009 (ip), vehicle: saline 94 % of control | [11] 95 % of control | dose: 25.0 mg/kg/injection, schedule: Q01DX001 (ip), vehicle: saline 98 % of control | [12] 96 % of control | [7] 96 % of control | dose: 50.0 mg/kg/injection, schedule: Q01DX009 (ip), vehicle: saline 97 % of control | [13] 105 % of control | [8] 100 % of control | dose: 100.0 mg/kg/injection, schedule: Q01DX009 (ip), vehicle: saline 87 % of control | dose: 100.0 mg/kg/injection, schedule: Q04DX003 (ip), vehicle: saline 107 % of control

CSC(=NCc1ccccc1)NC1CCCCC1
inactive: dose: 12.5 mg/kg/injection, schedule: Q04DX002 (ip), vehicle: Klucel (hydroxypropylcellulose) (HPC) 100 % of control | dose: 25.0 mg/kg/injection, schedule: Q04DX002 (ip), vehicle: Klucel (hydroxypropylcellulose) (HPC) 107 % of control | dose: 50.0 mg/kg/injection, schedule: Q04DX002 (ip), vehicle: Klucel (hydroxypropylcellulose) (HPC) 107 % of control

From PubChem BioAssay AID248 (DTP/NCI, 2004)
